# Experimental data from publication PMC9653173, “Trotabresib (CC-90010) in combination with adjuvant temozolomide or concomitant temozolomide plus radiotherapy in patients with newly diagnosed glioblastoma” (Neuro-Oncology Advances, 2022).
# Where two headings read alike, the source gives them in different places.
# How the values were obtained:
# [1] = system: MGMT; assay: In vivo downregulation of MGMT; settings: preclinical; Supplementary Figure S2
# From the text: Supplementary Figure 2. In vivo downregulation of MGMT (A) mRNA by trotabresib as a single agent and (B) protein by trotabresib in combination with TMZ.
# [2] = Trotabresib plasma pharmacokinetics, CC-90010-GBM-002; format: in vivo, human; settings: for Cmax: read-out: Cmax, GM (GCV%)
# Method: The sample size was not based on strict statistical power calculations. Safety, efficacy, and pharmacodynamic analyses were summarized using descriptive statistics. Plasma pharmacokinetic parameters were calculated by the noncompartmental analysis method from plasma concentration–time profiles.
# [3] = system: MYC; settings: in vitro; ref Bristol Myers Squibb; data on file; cited from earlier work
# [4] = system: CCR1 mRNA; assay: Blood CCR1 mRNA pharmacodynamics; format: in vivo, human
# From the text: Plasma samples were collected during the first treatment cycle for investigation of trotabresib pharmacokinetics and pharmacodynamics. Plasma pharmacokinetic parameters assessed included peak plasma concentration (Cmax), time to peak plasma concentration (tmax), area under the plasma concentration–time curve (AUC), and terminal half-life (t½). Pharmacodynamic markers assessed included blood levels of CCR1 and HEXIM1 mRNA, which are established markers of BET inhibitor target engagement.[17],[22],[37],[38]
smiles,measurement,setting,value
Cn1cc(-c2cc(S(C)(=O)=O)ccc2OCC2CC2)c2ccccc2c1=O [Trotabresib],MGMT expression,[1],downregulates MGMT expression in a dose-dependent manner
same,Reduction in plasma trotabresib concentration,[2]; 168 hours post-dose,> 75%
same,mean t½,"[2]; all cohorts, standard deviation ± 27.2",~ 74 h
same,Increase in exposure with dose,"[2]; both treatment settings, 15-45 mg",proportional to dose
same,Cmax,"[2]; human, plasma, oral, adjuvant trotabresib 15 mg + TMZ, Day 1",201 ng/mL
same,Tmax,"[2]; human, plasma, oral, adjuvant trotabresib 15 mg + TMZ, Day 1, read-out: tmax, median (range)",1 h
same,Cmax,"[2]; human, plasma, oral, adjuvant trotabresib 15 mg + TMZ, Day 4",433 ng/mL
same,Tmax,"[2]; human, plasma, oral, adjuvant trotabresib 15 mg + TMZ, Day 4, read-out: tmax, median (range)",1.5 h
same,Cmax,"[2]; human, plasma, oral, adjuvant trotabresib 30 mg + TMZ, Day 1",306 ng/mL
same,Tmax,"[2]; human, plasma, oral, adjuvant trotabresib 30 mg + TMZ, Day 1, read-out: tmax, median (range)",2 h
same,Cmax,"[2]; human, plasma, oral, adjuvant trotabresib 30 mg + TMZ, Day 4",822 ng/mL
same,Tmax,"[2]; human, plasma, oral, adjuvant trotabresib 30 mg + TMZ, Day 4, read-out: tmax, median (range)",1.5 h
same,Cmax,"[2]; human, plasma, oral, adjuvant trotabresib 45 mg + TMZ, Day 1",522 ng/mL
same,Tmax,"[2]; human, plasma, oral, adjuvant trotabresib 45 mg + TMZ, Day 1, read-out: tmax, median (range)",2 h
same,Cmax,"[2]; human, plasma, oral, adjuvant trotabresib 45 mg + TMZ, Day 4",1160 ng/mL
same,Tmax,"[2]; human, plasma, oral, adjuvant trotabresib 45 mg + TMZ, Day 4, read-out: tmax, median (range)",1.5 h
same,half-life,"[2]; human, plasma, oral, all cohorts, standard deviation ± 27.2, read-out: mean t½ (converted)",74.2 h
same,Cmax,"[2]; human, plasma, oral, concomitant trotabresib 15 mg + TMZ + RT, Day 1",167 ng/mL
same,Tmax,"[2]; human, plasma, oral, concomitant trotabresib 15 mg + TMZ + RT, Day 1, read-out: tmax, median (range)",2 h
same,Cmax,"[2]; human, plasma, oral, concomitant trotabresib 15 mg + TMZ + RT, Day 4",383 ng/mL
same,Tmax,"[2]; human, plasma, oral, concomitant trotabresib 15 mg + TMZ + RT, Day 4, read-out: tmax, median (range)",1.3 h
same,Cmax,"[2]; human, plasma, oral, concomitant trotabresib 30 mg + TMZ + RT, Day 1",309 ng/mL
same,Tmax,"[2]; human, plasma, oral, concomitant trotabresib 30 mg + TMZ + RT, Day 1, read-out: tmax, median (range)",2 h
same,Cmax,"[2]; human, plasma, oral, concomitant trotabresib 30 mg + TMZ + RT, Day 4",874 ng/mL
same,Tmax,"[2]; human, plasma, oral, concomitant trotabresib 30 mg + TMZ + RT, Day 4, read-out: tmax, median (range)",1.5 h
same,Tmax,"[2]; human, plasma, oral, day 4, all cohorts, read-out: tmax",0.5 to 4 h
same,MYC expression,[3],downregulated in vitro
same,"Blood CCR1 mRNA expression, lower than at baseline","[4]; RP2D 30 mg, day 4, 2–4 h post-dose, adjuvant and concomitant settings",≥ 50%
same,Time to return of CCR1 mRNA expression to baseline levels,"[4]; RP2D 30 mg, post-dose in cycle 1",≤ 168 h
same,Blood CCR1 mRNA modulation,"[4]; trotabresib 15 mg, adjuvant or concomitant cohorts",no decrease in CCR1 expression
